Marks after values point to notes of the source that are not given here.
Columns and labels:
[1] = Vero cell viability after 2 h exposure to lipoperoxidators (CellTiter-Glo); details: African green monkey, CC50, Vero
Description: (§1) The cells were washed twice with warm DMEM before a 100 μL lipoperoxidator solution was transferred with a multichannel pipette from the plate containing the drug dilutions in technical triplicates. The cells were incubated with peroxidators for 2 h at 37°C. Then, the medium was removed, and the cells were washed twice with DMEM at 37°C. The plates were cooled down to RT, and the medium was removed. Then, 50 μL phenol red free DMEM and 50 μL CellTiter-glo Luminiscent Cell Viability Assay (Promega, G7571/2/3) were added and mixed in an orbital shaker for 2 min. Afterwards, 80 μL of the mix was transferred onto white 96-well plates and incubated for 10 min at RT for signal stabilization. The luminescence was read in the Glomax Multidetection System (Promega) with an integration time of 0.5 s.
(§2) The means of the technical triplicates were normalized to the means of the vehicle controls, analyzed via nonlinear regression dose responses, and graphed using GraphPad Prism 9.0. Three or four independent biological replicates were performed for each treatment (n = 3 or 4).
(§3) To evaluate the effects of lipid soluble antioxidants, 10 μM vitamin E was loaded onto carrier 1% BSA in the dark for 4.5 h at RT. The cells were washed twice with DMEM at 37°C and preloaded with 100 μL of 10 μM vitamin E in BSA carrier for 3 h at 37°C. The cells were washed twice again before the addition of any lipoperoxidators. Peroxidators were then added to the cells at working concentrations and incubated for 2 h at 37°C. The peroxidation solution was then removed, and the cells were washed twice with DMEM before analyzing viability. To evaluate the effects of a water soluble antioxidant, the cells were treated with 10 μM vitamin C (final concentration) simultaneously with the lipoperoxidators.

Vero cells [2] = test: as above; details: Vero
Description: as §1, §2, §3

HSV-1 = HSV-1 virion infectivity (plaquing efficiency) on Vero cells after virion pretreatment; details: Vero; for EC50: Human alphaherpesvirus 1, Vero
Description: The inocula were removed, and the cells were washed and then incubated at 37°C in 5% CO2 until plaques were visible and well-resolved (about 2 days), at which time they were fixed and stained with crystal violet.
HSV-1 suspensions of 20,000 plaque PFU in 250 μL DMEM were mixed 1:1 with 2-fold serial dilutions of the general peroxidators and were incubated in a water bath for 2 h at 37°C. Next, treated virions were diluted 1:100 before being adsorbed onto cells for 1 h at 37°C. The inocula were removed, and the cells were washed twice with cold DMEM. Infected cells were overlaid with DMEM supplemented with 2% (Vero) or 1% (HFF) methylcellulose and 5% FBS and were incubated at 37°C until plaques were visible and well-resolved, typically in about 2 days. Cell monolayers were fixed and stained with 1% crystal violet in 17% methanol for 18 h at RT. The cells were washed, and the plaques were counted and normalized to those produced by the vehicle treated virions.
To test the effects of lipid soluble antioxidants on virions, 10 μM vitamin E loaded onto 1% carrier BSA in the dark for 4.5 h at RT was incubated with 10^6 HSV-1 virions for 3 h at 37°C. […] The treated virions were diluted 1:100 before infecting cells. […] The mix was incubated for 2 h at 37°C, diluted 1:100, and used to infect cells. The infectivity of an aliquot of treated virions was tested via a plaque assay.

HSV-1 virions [3] = test: HSV-1 virion lipid peroxidation probed with C11-Bodipy; set-up: species or system HSV-1 KOS; details: Human alphaherpesvirus 1, Bodipy probe
Description: (§4) The effects of peroxidators have been commonly evaluated against purified lipids and liposomes as a proxy, but they have not been evaluated against virions ([50], [53][–][55]). We instead directly evaluated the extent of virion lipid peroxidation.
To evaluate virion lipoperoxidation with C11-Bodipy, 50 μL DMEM containing 5 × 10^6 PFU of HSV-1 was added into each well of 96-well plates. Virions were then preloaded with 0.1 mol % of C11-Bodipy for 30 min at 37°C. […] Fluorescence was evaluated in a TECAN Infinite M200 Pro at 550 nm excitation and 580 to 630 nm emission with the reading peak at 600 nm.
(§5) To evaluate the effects of a lipid soluble antioxidant, cells or virions were preloaded with vitamin E-BSA for 3 h at 37°C. Vitamin E-BSA containing medium was removed, and the cells were washed twice with DMEM. Liperfluo (20 or 10 μM for cells or virions, respectively) or C11-Bodipy (1 μM for cells or 0.1 mol% for virions) were preloaded into the cells or virions for 30 min at 37°C.
(§6) To evaluate the effects of water soluble antioxidants, liperfluo (20 μM for cells or 10 μM for virions) or C11-Bodipy (1 μM for cells or 0.1 mol% for virions) were preloaded into the cells or virions for 30 min at 37°C. […] Fluorescence was evaluated in a TECAN Infinite M200 Pro at 515 nm excitation and 545 nm emission for liperfluo or at 550 nm excitation and 580 to 630 nm emission for C11-Bodipy.

HSV-1 virions [4] = test: microbe, parasite or virus in culture; set-up: species or system HSV-1 KOS
Description: as §4
To evaluate virion peroxidation using liperfluo, 50 μL DMEM that contained 5 × 10^6 PFU of HSV-1 was added to 96-well plates. Virions were then preloaded with 10 μM liperfluo for 20 min at 37°C. […] Fluorescence was evaluated in a TECAN Infinite M200 Pro at 515 nm excitation and 545 nm emission. Medium containing no virus was used as blank.
as §5, §6

Vero cells [5] = test: Viability of Vero cells infected with AMVN-pretreated virions
Description: (§7) The inocula were removed, the cells were washed, and the viability was immediately evaluated, mimicking the conditions used to test the direct exposure of the cells to the peroxidators.
(§8) After 1 h at 37°C, the cells were washed, and cell viability was evaluated as described.

HFF cells = test: Viability of HFF cells infected with AMVN-pretreated virions
Description: as §7, §8

[6] = pretreated virions diluted 1:100

SMILES: CC(C)CC(C)(C#N)N=NC(C)(C#N)CC(C)C (stereo not shown) [AMVN, 2,2′-azobis(2,4-dimethylvaleronitrile)]
- CC50 at 2 h ([1]; no antioxidant, 2 h at 37°C): 4000 µM
- CC50 at 2 h ([1]; preloaded with vitamin E (10 μM, BSA carrier)): 4600 µM
- CC50 at 2 h ([1]; with vitamin C (10 μM)): 3300 µM
- concentration of maximal inhibition of cell viability (Vero cells [2]): 10000 µM
- PI, CC50 (antioxidant)/CC50 (Vero cells [2]; vitamin C): 0.8
- PI, CC50 (antioxidant)/CC50 (Vero cells [2]; vitamin E): 1.2^d
- EC50 (HSV-1; 2 h, no antioxidant, virions treated 2 h at 37°C): 800 µM
- EC50 (HSV-1; virions preloaded with vitamin E (10 μM, BSA carrier)): 3800 µM
- EC50 (HSV-1; with vitamin C (10 μM)): 2600 µM
- concentration of maximal inhibition of virion infectivity (HSV-1): 5 mM
- concentration giving a loss of infectivity of about 30% (HSV-1; 2 h at 37°C): 0.3 mM
- SI, CC50/EC50 (HSV-1; vitamin C): 1.3
- SI, CC50/EC50 (HSV-1; vitamin E): 1.2
- lowest concentration that decreased virion infectivity in the presence of BSA (HSV-1; with BSA): 2.5 mM
- lowest effective concentration on infectivity in the presence of the antioxidants (HSV-1; with antioxidants): 1.5 mM
- EC50 (HSV-1 virions [3]; no antioxidant, read-out: VP50 (concentration of peroxidant that results in 50% peroxidation in virion lipids)): 2700 µM
- EC50 (HSV-1 virions [3]; vitamin C, read-out: VP50 (the source's name)): 2000 µM
- EC50 (HSV-1 virions [3]; vitamin E, read-out: VP50 (the source's name)): 2400 µM
- EC50 (HSV-1 virions [4]; Human alphaherpesvirus 1, read-out: VP50, Liperfluo probe, no antioxidant): 1200 µM
- EC50 (HSV-1 virions [4]; Human alphaherpesvirus 1, read-out: VP50, Liperfluo probe, vitamin C): 1200 µM
- EC50 (HSV-1 virions [4]; Human alphaherpesvirus 1, read-out: VP50, Liperfluo probe, vitamin E): 900 µM
- decrease of infected cell viability at the highest AMVN concentration (Vero cells [5]; AMVN carried by virions): 20 to 30%
- concentration from which AMVN carried by virions had minor effects on infected cell viability (Vero cells [5]; [6]): 2000 µM
- decrease of infected cell viability at the highest AMVN concentration (HFF cells; AMVN carried by virions): 20 to 30%
- concentration from which AMVN carried by virions had minor effects on infected cell viability (HFF cells; [6]): 3000 µM
